Converted amounts (≈) assume the structure as drawn. Each block holds one molecule with its values, some of them ahead of it.
How the values were obtained:
[1] = Miniaturised shake flask solubility in Britton-Robinson buffers and biorelevant media (Experiment 8c); assay type: physicochemical; conditions: 37° C., 1, 4 and 24 hours; FIG. 25
Procedure: Solubility of Form I and Form III was also measured in Britton-Robinson buffers (pH 2-8), determined and compared using a standardised miniaturised shake flask method via an automated platform using a development HPLC method for quantification post centrifugation and filtration. Samples were run at 37° C. and performed as 2 replicate preparations for each pH condition and 4 replicate preparations for each biorelevant media condition at 1, 4 and 24 hours.

[2] = Solubility of linerixibat drug substance over pH 1.2-6.8 at 37±1° C. (Experiment 8a); assay type: physicochemical
Procedure: The solubility of linerixibat drug substance, in respect of Form I and Form III, was determined over the pH range of 1.2-6.8 at 37±1° C. Eight pH values within this range, including buffers at pH 1.2, 4.5 and 6.8 were evaluated. The therapeutic dose for linerixibat is 40 mg.
• SGF=simulated gastric fluid • BR=Britton Robinson

[3] = Storage stability of drug substance by HPLC, XRPD and SSNMR; assay type: physicochemical; conditions: 1 month of storage at 50° C./ambient RH
[4] = Solubility of drug substance samples in biorelevant media and sodium acetate buffer (Experiment 8b); assay type: physicochemical
From the text: Solubility data was obtained for drug substance samples of linerixibat Form I, linerixibat Form III, and additionally for a sample of Form I compressed to 100 MPa which therefore contained an amount of Form III, in order to replicate typical forces encountered during tablet manufacture.
The media used for the drug substance samples were biorelevant media likely to be experienced in the stomach and the intestine, namely Simulated Gastric Fluid (SGF) over an increasing pH range (1.6, 2.0 and 4.0) and Fasted State Simulated Intestinal Fluid (FaSSIF) at a pH of 6.5. Solubility data was also obtained in 50 mM sodium acetate buffer pH 4.5.

[5] = Dissolution of linerixibat tablets (USP <711> Apparatus II); assay type: physicochemical; conditions: at both gastric and intestinal pH (pH 1.2 and pH 6.8)
Procedure: The dissolution procedure developed for Linerixibat Tablets, 40 mg, is determined as directed in USP<711> and the method parameters are presented in Table G. The percentage of dissolved drug is currently determined by gradient reversed-phase HPLC.
The above dissolution method at pH 6.8 was applied to two batches of Linerixibat Tablets, 40 mg and the profiles obtained are shown in FIG. 24.

[6] = Systemic absorption of linerixibat; conditions: in vivo

solubility comparison in biorelevant media [1]: very similar
solubility at 1 h ([2]; Britton Robinson buffer, 37 °C, pH 3.7, aqueous buffer, thermodynamic from solid, nominal pH 3.7, BR buffer, 1-hr timepoint): 104 µg/mL (≈ 190 µM)
solubility at 4 h ([2]; Britton Robinson buffer, 37 °C, pH 3.7, aqueous buffer, thermodynamic from solid, nominal pH 3.7, BR buffer, 4-hr timepoint): 121 µg/mL (≈ 221 µM)
solubility at 24 h ([2]; Britton Robinson buffer, 37 °C, pH 3.7, aqueous buffer, thermodynamic from solid, nominal pH 3.7, BR buffer, 24-hr timepoint): 129 µg/mL (≈ 236 µM)
solubility classification ([2]; all pHs in the physiological range except close to the solubility minimum (between pH 3.2 and pH 4.2), high solubility = above 0.16 mg/mL (40 mg in 250 mL)): highly soluble
Solubility ([2]; nominal pH 1.2, SGF, 37° C., 1-hr timepoint): >1000 µg/mL
Solubility ([2]; nominal pH 1.2, SGF, 37° C., 4-hr timepoint): >1000 µg/mL
Solubility ([2]; nominal pH 1.2, SGF, 37° C., 24-hr timepoint): >1000 µg/mL
Solubility ([2]; nominal pH 3.0, BR buffer, 37° C., 1-hr timepoint): 166 µg/mL (≈ 304 µM)
Solubility ([2]; nominal pH 3.0, BR buffer, 37° C., 4-hr timepoint): 205 µg/mL (≈ 375 µM)
Solubility ([2]; nominal pH 3.0, BR buffer, 37° C., 24-hr timepoint): 238 µg/mL (≈ 435 µM)
Solubility ([2]; nominal pH 3.5, BR buffer, 37° C., 1-hr timepoint): 103 µg/mL (≈ 188 µM)
Solubility ([2]; nominal pH 3.5, BR buffer, 37° C., 4-hr timepoint): 122 µg/mL (≈ 223 µM)
Solubility ([2]; nominal pH 3.5, BR buffer, 37° C., 24-hr timepoint): 130 µg/mL (≈ 238 µM)
Solubility ([2]; nominal pH 4.0, BR buffer, 37° C., 1-hr timepoint): 119 µg/mL (≈ 218 µM)
Solubility ([2]; nominal pH 4.0, BR buffer, 37° C., 4-hr timepoint): 137 µg/mL (≈ 251 µM)
Solubility ([2]; nominal pH 4.0, BR buffer, 37° C., 24-hr timepoint): 147 µg/mL (≈ 269 µM)
Solubility ([2]; nominal pH 4.5, Acetate buffer, 37° C., 1-hr timepoint): 199 µg/mL (≈ 364 µM)
Solubility ([2]; nominal pH 4.5, Acetate buffer, 37° C., 4-hr timepoint): 252 µg/mL (≈ 461 µM)
Solubility ([2]; nominal pH 4.5, Acetate buffer, 37° C., 24-hr timepoint): 310 µg/mL (≈ 567 µM)
Solubility ([2]; nominal pH 5.0, BR buffer, 37° C., 1-hr timepoint): 342 µg/mL (≈ 626 µM)
Solubility ([2]; nominal pH 5.0, BR buffer, 37° C., 4-hr timepoint): 466 µg/mL (≈ 852 µM)
Solubility ([2]; nominal pH 5.0, BR buffer, 37° C., 24-hr timepoint): 620 µg/mL (≈ 1130 µM)
Solubility ([2]; nominal pH 6.8, Phosphate buffer, 37° C., 1-hr timepoint): >1000 µg/mL
Solubility ([2]; nominal pH 6.8, Phosphate buffer, 37° C., 4-hr timepoint): >1000 µg/mL
Solubility ([2]; nominal pH 6.8, Phosphate buffer, 37° C., 24-hr timepoint): >1000 µg/mL
difference in solubility between Form I and Form III ([2]; pH 1.2-6.8, 37±1° C.): no significant difference
Solubility ([4]; 50 mM Sodium Acetate Buffer pH 4.5, 1 Hour, listed as Form 3): 290 µg/mL (≈ 530 µM)
Solubility ([4]; 50 mM Sodium Acetate Buffer pH 4.5, 4 Hours, listed as Form 3): 290 µg/mL (≈ 530 µM)
Solubility ([4]; 50 mM Sodium Acetate Buffer pH 4.5, 24 Hours, listed as Form 3): 280 µg/mL (≈ 512 µM)
Solubility ([4]; FaSSIF pH 6.5, 1 Hour, listed as Form 3): 5200 µg/mL (≈ 9510 µM)
Solubility ([4]; FaSSIF pH 6.5, 4 Hours, listed as Form 3): 5310 µg/mL (≈ 9710 µM)
Solubility ([4]; FaSSIF pH 6.5, 24 Hours, listed as Form 3): 5320 µg/mL (≈ 9730 µM)
Solubility ([4]; SGF pH 1.6, 1 Hour, listed as Form 3): 7540 µg/mL (≈ 13800 µM)
Solubility ([4]; SGF pH 1.6, 4 Hours, listed as Form 3): 7900 µg/mL (≈ 14500 µM)
Solubility ([4]; SGF pH 1.6, 24 Hours, listed as Form 3): 8620 µg/mL (≈ 15800 µM)
Solubility ([4]; SGF pH 2.0, 1 Hour): 1490 µg/mL (≈ 2730 µM)
Solubility ([4]; SGF pH 2.0, 4 Hours, listed as Form 3): 1580 µg/mL (≈ 2890 µM)
Solubility ([4]; SGF pH 2.0, 24 Hours, listed as Form 3): 1700 µg/mL (≈ 3110 µM)
Solubility ([4]; SGF pH 4.0, 1 Hour, listed as Form 3): 160 µg/mL (≈ 293 µM)
Solubility ([4]; SGF pH 4.0, 4 Hours, listed as Form 3): 170 µg/mL (≈ 311 µM)
Solubility ([4]; SGF pH 4.0, 24 Hours, listed as Form 3): 190 µg/mL (≈ 348 µM)
Structure (SMILES): CCCC[C@]1(CC)CS(=O)(=O)c2cc(CNC(CC(=O)O)CC(=O)O)c(OC)cc2[C@@H](c2ccccc2)N1 [Form III]
change of form or drug-related impurity content [3]: Laboratory isolated Form III drug substance demonstrated no change in form
solubility comparison of the forms ([4]; all investigated physiologically relevant pH values (1.6 to 6.5)): Forms I and III have very similar solubilities at all investigated physiologically

time to full release [5]: 5 min
systemic absorption [6]: minimal systemic absorption
Solubility ([2]; buffer, 37 °C, pH 1.2, simulated gastric fluid, thermodynamic from solid, pH 1.2 (gastric pH), read-out: solubility): > 1000 µg/mL
Solubility ([2]; buffer, 37 °C, pH 6.8, aqueous buffer, thermodynamic from solid, pH 6.8 (intestinal pH), read-out: solubility): > 1000 µg/mL
Structure (SMILES): CCCC[C@]1(CC)CS(=O)(=O)c2cc(CNC(CC(=O)O)CC(=O)O)c(OC)cc2[C@@H](c2ccccc2)N1 [linerixibat, 3-({[(3R,5R)-3-butyl-3-ethyl-7-(methyloxy)-1,1-dioxido-5-phenyl-2,3,4,5-tetrahydro-1,4-benzothiazepin-8-yl]methyl}amino)pentanedioic acid]
